Source: PubChem BioAssay (NCI)
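Step 1: Grow cells in 96-well plates. Step 2: Expose to compound for 48 hours at 5 concentrations. Step 3: Interpolate endpoints linearly; if unreached, use highest concentration. GI50 = concentration required for 50% inhibition of growth. At the TGI there is no net growth.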 Peptide text beside a SMILES is read from it. * marks the point of attachment. X26 = Clc1c(Cl)c(Cl)c(O*)c(Cl)c1Cl; Boc = CC(C)(C)OC(=O)*; OBn = c1ccc(CO*)cc1; Bn = c1ccc(C*)cc1

Columns and labels:
Assay in all cases: NCI anticancer screen, dose series, 48 h
[1] = system: 786-0 renal
[2] = system: NCI-H226 lung
[3] = system: OVCAR-8 ovarian
[4] = system: TK-10 renal
[5] = system: CAKI-1 renal
[6] = system: MALME-3M melanoma
[7] = system: SN12C renal
[8] = system: M14 melanoma
[9] = system: SNB-75 CNS

| Structure (SMILES) | TGI [1] [µM] | TGI [2] [µM] | TGI [3] [µM] | TGI [4] [µM] | TGI [5] [µM] | TGI [6] [µM] | TGI [7] [µM] | TGI [8] [µM] | TGI [9] [µM] | GI50 [9] [µM] | GI50 [2] [µM] | GI50 [3] [µM] | GI50 [4] [µM] | GI50 [5] [µM] | GI50 [6] [µM] | GI50 [7] [µM] | GI50 [8] [µM] |
| --- | --- | --- | --- | --- | --- | --- | --- | --- | --- | --- | --- | --- | --- | --- | --- | --- | --- |
| Cn1c2c(c3ccccc31)CCN1C(=O)C34CCCC3CC21S4 (configuration not stated) | > 100 | > 100 | > 100 | > 100 | > 100 | > 100 | > 100 | > 100 | – | – | – | – | – | – | – | – | – |
| Cc1cc(S(=O)(=O)Nc2n[nH]c(Nc3ccccc3)n2)c(SCC(=O)O)cc1Cl | > 100 | > 100 | > 100 | > 100 | > 100 | > 100 | > 100 | > 100 | > 100 | – | – | – | – | – | – | – | – |
| Clc1ccc(OCc2nnc(COc3ccc(OCc4nnc(COc5ccc(Cl)cc5Cl)o4)c(Cl)c3)o2)c(Cl)c1 | > 100 | > 100 | > 100 | > 100 | 54.9 | > 100 | > 100 | > 100 | – | – | – | – | – | – | – | – | – |
| O=C1/C(=C/c2ccncc2)C(n2cccc2)c2c(Br)sc(Br)c21 (configuration not stated) | 11.5 | – | 5.82 | 14.6 | 10.9 | 10.9 | 16.4 | – | 9.79 | – | – | – | – | – | – | – | – |
| Cn1nc2c(c1N)Cc1c(nn(C)c1N)-c1ccccc1-2 | > 100 | > 100 | > 100 | > 100 | > 100 | > 100 | > 100 | > 100 | – | – | – | – | – | – | – | – | – |
| COc1ccc(C2Oc3c(OC)cc(CCCO)cc3C2CO)cc1OC (configuration not stated) | > 100 | > 100 | > 100 | > 100 | – | > 100 | > 100 | > 100 | > 100 | – | – | – | – | – | – | – | – |
| O=C1/C(=C/c2ccc(Cl)cc2)CCCc2ccc(F)cc21 | – | 41.8 | 75.1 | 43.5 | 64.5 | 31.8 | 42.9 | 39.2 | > 100 | 48.3 | 16.8 | 22.8 | 15.7 | 22.5 | 6.45 | 20.1 | 11.6 |
| CCCCCCCCCCCCOCCOCCOCCOCCOCCOCC(=O)NC(Cc1ccccc1)C(=O)Oc1ccc([N+](=O)[O-])cc1 (configuration not stated) | > 100 | > 100 | > 100 | > 100 | > 100 | > 100 | – | > 100 | > 100 | – | – | – | – | – | – | – | – |
| C[C@H](c1ccccc1)N1C(=O)[C@@H](OCc2ccccc2)[C@H]1[C@H](COC(=O)COCc1ccccc1)OCc1ccccc1 | > 100 | 89.4 | – | > 100 | – | 76.7 | > 100 | > 100 | > 100 | – | – | – | – | – | – | – | – |
| CCCCCCCCCCCCNC(=O)CCC(NC(=O)c1ccc(N(C)Cc2cnc3nc(N)nc(N)c3n2)cc1)C(=O)NCCCCCCCCCCCC (configuration not stated) | > 100 | > 100 | > 100 | > 100 | – | > 100 | > 100 | > 100 | 20.8 | – | – | – | – | – | – | – | – |
| Cc1cc(OCc2nnc3sc(NC(=O)c4ccccc4)nn23)ccc1Cl | > 100 | > 100 | 47.1 | > 100 | 36 | 42.2 | > 100 | > 100 | – | – | – | – | – | – | – | – | – |
| CCC(=O)Nc1ccc(NS(=O)(=O)c2ccc(Cl)cc2)cc1 | > 100 | > 100 | > 100 | – | > 100 | > 100 | > 100 | > 100 | > 100 | – | – | – | – | – | – | – | – |
| CC(C)CC(NC(=O)C(CCC(=O)OCc1ccccc1)NC(=O)OC(C)(C)C)C(=O)NC(COCc1ccccc1)C(=O)NC(Cc1ccccc1)C(=O)Oc1c(Cl)c(Cl)c(Cl)c(Cl)c1Cl (configuration not stated) (Boc-E(OBn)LS(Bn)F-X26; configuration not given here) | 90.7 | – | 65.5 | 72.1 | 48.4 | 91.5 | 90.5 | 78 | > 100 | – | – | – | – | – | – | – | – |
| Oc1c(OCc2nnc(CCCCCCCCc3nnc(COc4ccc5ccccc5c4O)o3)o2)ccc2ccccc12 | 50.8 | > 100 | – | > 100 | > 100 | > 100 | > 100 | > 100 | > 100 | – | – | – | – | – | – | – | – |
| CN(C)CCCNc1cc(O)c2c(c1O)C(=O)c1ccccc1C2=O | 21 | 35.2 | 30.5 | 22.1 | 25.7 | 50.2 | 16.5 | 19.5 | – | – | – | – | – | – | – | – | – |
| N#Cc1nc(CCCN2C(=O)c3ccccc3C2=O)oc1N | > 100 | > 100 | > 100 | > 100 | > 100 | > 100 | > 100 | > 100 | – | – | – | – | – | – | – | – | – |
| CN(C)CCNc1c([N+](=O)[O-])sc2ccc(Cl)cc12 | 49.1 | 66 | > 100 | > 100 | – | > 100 | > 100 | > 100 | 43 | – | – | – | – | – | – | – | – |
| O=c1c(-c2ccccc2)c(SCCN2CCCCCC2)n(-c2ccccc2)c(=S)n1-c1ccccc1 | – | > 100 | > 100 | > 100 | 99.1 | 49.3 | – | – | > 100 | – | – | – | – | – | – | – | – |
| CCN(CCCCCCCCCCN1CC(=O)N(CCCCCCCCCCN(CC)Cc2ccccc2OC)CC1=O)Cc1ccccc1OC | – | 3.94 | 3.29 | – | 3.15 | 3.47 | 3.57 | – | 11.8 | 2.68 | 1.96 | 1.47 | – | 1.57 | 1.64 | 1.51 | – |
| CC(C)=CCC12Cc3ccc(O)cc3C(C(C)CN1)C2C (configuration not stated) | > 100 | > 100 | > 100 | > 100 | – | > 100 | > 100 | 51.5 | > 100 | – | – | – | – | – | – | – | – |
| CCCCCCc1cc2cc(-c3csc(-c4ccc(OC)cc4)n3)c(=O)oc2cc1O | 18 | 30.6 | – | 34.1 | 20 | – | 23.6 | 27.5 | 47.2 | – | – | – | – | – | – | – | – |
| COc1ccc(OC/C(N=Cc2ccncc2)=N/NC(=O)c2ccncc2)cc1 | > 100 | > 100 | > 100 | > 100 | > 100 | > 100 | > 100 | > 100 | – | – | – | – | – | – | – | – | – |
| C=C(C)[C@H]1CC(=O)/C(C)=C\CC/C(C)=C/CC[C@@]2(C)O[C@@H]2C1 | > 100 | – | > 100 | 76.5 | 9.41 | 88.7 | 42.7 | > 100 | > 100 | – | – | – | – | – | – | – | – |
